Reference: patent publication US9133449B2, “Mutant pyrrolysyl-tRNA synthetase, and method for production of protein having non-natural amino acid integrated therein by using the same” (priority 2007, dated 2015)
“Also recorded” adds a separate entry of the source.

How the values were obtained:
[1] = target: M. mazei PylRS (wild-type) (Methanosarcina mazei, UniProt Q8PWY1); assay type: biochemical; details: 37 degrees Celsius 1 h; 0.5 M Lys; 100 mM Ac-Lys; 1 mM Boc-Lys; 1 mM Aloc-Lys; 10 mM Nic-Lys; 7 mM Nma-Lys; 3.5 mM Z-Lys; 1 mM pyrrolysine
[2] = system: GRB2 amber gene, HEK c-18 cell
From the text: (§1) For expressing PylRS (Y306A, Y384F) mutant and tRNA^P1 in HEK c-18 cell, the system disclosed in the above-mentioned Non-Patent Document 7 was used. Likewise, the mutant gene into which the amber codon was incorporated at the cording region of lac Z gene and GRB2 gene, and the expression system thereof, as disclosed in the above-mentioned Non-Patent Document 7, were used.

[3] = system: GST gene with amber codon (TAG) at the 25th from N terminus, E. coli BL21 (DE3); assay type: cell-based; details: for expression of 28-kDa GST protein: mutant PylRS (Y384F) and tRNA^Pyl, 4 mM amino acid; for incorporation into a protein with wild-type PylRS: E. coli cells
From the text: In order to confirm whether amber suppression (amber mutation suppression) occurs in E. coli cells, the glutathione S-transferase (GST) gene whose tyrosine codon at the 25th from N terminus was mutated to the amber codon (TAG) was cloned into a pET system plasmid. On the other hand, the wild-type and a variety of mutant PylRS genes, as well as tRNA^Pyl genes were cloned into a pACYX system plasmid (see FIG. 6). These two expression vectors were transformed to E. coli BL21 (DE3) to statically culture overnight on LB agar medium including kanamycin and ampicillin. […] Incubation was conducted overnight to induce expression before E. coli cells were harvested to detect expressed GST using SDS-PAGE. […] (SEQ ID NO: 17) (m/z=1327.72 Da) (see FIG. 10).
The same plasmid pTK2-1 as Example 1 was used for expressing PylRS mutant with double amino acid substitutions of Y306A and Y384F and tRNA^Pyl in E. coli cells. Incorporation of a lysine derivative into GST having amber codon at 25th from its N-terminus using this plasmid was performed according to the same method as Example 1. Moreover, specific incorporation of AzZLys [purchased from Shinsei Chemical Company Ltd. (Osaka)] into the amber site in GST using the same plasmid was also performed according to the same method as Example 1. Subsequently, crude extract obtained from E. coli cells in which the GST amber gene was expressed was separated with SDS-PAGE and stained. […] Furthermore, purification of GST was performed with the same method as Example 1.

[4] = system: lacZ amber gene, HEK c-18 cell
From the text: as §1
First, in the animal cells, optimal concentration of AzLys for site-specific incorporation of AzLys into the protein was determined. In media containing 0, 0.01, 0.025, 0.05, 0.1, 0.25 and 0.5 mM of AzZLys, LacZ protein was expressed from the lacZ amber gene to determine the level of expression (relative value) of LacZ with coloring reaction by LacZ. […] In FIG. 17, WT represents the level of expression (relative value) of wild-type (WT) lacZ without any amber codon in the coding region.

[5] = system: GST; details: FITC-PP3; ca. 37 degrees Celsius for 1 hour (not at ca. 4 degrees Celsius overnight)
Experimental: A conjugate of fluorophore and triarylphosphine, and the purified full length GST were linked by Staudinger-Bertozzi reaction. As a conjugate, the conjugate with FITC (hereinafter referred to as FITC-PP3) (purchased from Shinsei Chemical Company Ltd.) was used. […] Linkage reaction was performed under two types of reactive conditions, i.e., at ca. 37 degrees Celsius for 1 hour (lhr) and at ca. 4 degrees Celsius overnight (O/N). Subsequently, these GST were separated by SDS-PAGE to detect fluorescence with UV light. […] As to the Staudinger-Bertozzi reaction, see the above-mentioned Non-Patent Documents 5, 6, etc.

Sequence of M. mazei PylRS (wild-type) (Q8PWY1 whole entry E444G, looked up): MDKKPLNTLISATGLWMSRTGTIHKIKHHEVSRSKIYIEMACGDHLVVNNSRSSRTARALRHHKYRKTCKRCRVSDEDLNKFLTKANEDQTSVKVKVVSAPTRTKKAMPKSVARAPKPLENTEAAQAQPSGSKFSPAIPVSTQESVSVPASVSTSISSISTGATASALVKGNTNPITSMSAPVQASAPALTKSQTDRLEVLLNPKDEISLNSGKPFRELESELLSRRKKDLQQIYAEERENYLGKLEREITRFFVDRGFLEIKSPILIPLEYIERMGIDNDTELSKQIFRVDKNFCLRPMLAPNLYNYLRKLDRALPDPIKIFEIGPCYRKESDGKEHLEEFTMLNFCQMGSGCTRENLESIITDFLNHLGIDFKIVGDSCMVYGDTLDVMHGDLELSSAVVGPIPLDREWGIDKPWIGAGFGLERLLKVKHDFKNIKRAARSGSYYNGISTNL

C[C@@H]1CC=N[C@H]1C(=O)NCCCC[C@H](N)C(=O)O [pyrrolysine, N^6-[(2R,3R)-3-methyl-3,4-dihydro-2H-pyrrole-2-ylcarbonyl]-L-lysine]
activation of amino acid / esterification of tRNA^Pyl by wild-type PylRS [1]: activates

CNc1ccccc1C(=O)NCCCC[C@H](N)C(=O)O [Nma-Lys, N^ε-(N-methyl-anthraniloyl)-L-lysine]
activation of amino acid / esterification of tRNA^Pyl by wild-type PylRS [1]: esterified

[N-]=[N+]=Nc1ccc(C[C@H](N)C(=O)O)cc1 [AzF, para-azide-phenylalanine]
Grb2 modified with fluorescence ([2]; AzFRS system, AzFRS also modified with fluorescence concurrently): modified with fluorescence

[N-]=[N+]=Nc1ccccc1COC(=O)NCCCC[C@H](N)C(=O)O [AzZLys, N^ε-Ortho-Azide-Benzyloxycarbonyl-Lysine]
expression of the full length GST ([3]; PylRS mutant Y306A and Y384F and tRNA^Pyl, 1 mM AzZLys): detected merely in the case of the presence of 1 mM AzZLys | suppression efficiency (LacZ expression relative to wild-type lacZ) ([4]; PylRS (Y306A, Y384F) and tRNA^Pyl, 0.05 mM AzZLys): approximately 30 % of WT | concentration at which most efficiently incorporated into the amber site of lacZ ([4]; tested 0, 0.01, 0.025, 0.05, 0.1, 0.25 and 0.5 mM): 0.05 mM | Grb2 protein labeled with fluorescence ([2]; PylRS (Y306A, Y384F), tRNA^Pyl, FITC-PP3): detected merely in the case of aaRS (+), Grb2 (Am), tRNA (+) and a.a. (+) | fluorescence-modified GST [5]: detected merely in the case of the reactive condition at ca. 37 degrees Celsius for 1 hour

CC(=O)NCCCC[C@H](N)C(=O)O [Ac-Lys, N^ε-acetyl-L-lysine]
activation of amino acid / esterification of tRNA^Pyl by wild-type PylRS [1]: esterified

C=CCOC(=O)N[C@@H](CCCCN)C(=O)O [Aloc-Lys, allyloxycarbonyl-lysine]
activation of amino acid / esterification of tRNA^Pyl by wild-type PylRS [1]: activated at a concentration of 1 mM, as efficiently as pyrrolysine | expression of 28-kDa GST protein [3]: expressed

CC(C)(C)OC(=O)N[C@@H](CCCCN)C(=O)O [Boc-Lys, tert-butyloxycarbonyl-lysine]
activation of amino acid / esterification of tRNA^Pyl by wild-type PylRS [1]: activated at a concentration of 1 mM, as efficiently as pyrrolysine | expression of 28-kDa GST protein [3]: expressed | incorporation into a protein with wild-type PylRS [3]: could not efficiently be incorporated

N[C@@H](CCCCNC(=O)OCc1ccccc1)C(=O)O [Z-Lys, N^ε-benzyloxycarbonyl-L-lysine]
activation of amino acid / esterification of tRNA^Pyl by wild-type PylRS [1]: merely weakly activated; also recorded: esterified | production of full length GST protein ([3]; double mutant PylRS (Y384F/Y306A) and tRNA^Pyl, 5 mM Z-Lys): produced | incorporation into a protein with wild-type PylRS [3]: cannot be incorporated into a protein
